Experimental data reported in patent US20230257374A1, “NOVEL KRAS G12C PROTEIN INHIBITOR, PREPARATION METHOD THEREFOR, AND USE THEREOF” (INNOVENT BIOLOGICS (SUZHOU) CO., LTD., priority 2019, published 2023).
Read-outs that look alike come from different tables or passages of the source. Blank lines part the entries; values can stand above or below the compound they belong to.

Assays:
[1] = in vitro; settings: human, Caco-2, pH 7.4
Description: (§1) Drug penetration test: the Transwell culture plate was retrieved from the incubator. […] All samples were prepared in double parallel. The integrity of the cell monolayer membrane after 2 hours of incubation was assessed using leakage of fluorescein; fluorescein stock solution was diluted with HBSS (25 mM HEPES, pH 7.4) to a final concentration of 100 μM. 100 μL of fluorescein solution was added to each well of the upper Transwell plate and 300 μL of HBSS (25 mM HEPES, pH 7.4) was added to each well of the lower receiving plate; after incubation at 37° C. for 30 min, 80 μL of the solution was pipetted from the upper and lower layers of each well to a new 96-well plate.
(§2) The apparent permeability coefficients (Papp, unit: cm/s) of the compounds in Caco-2 cells were calculated from the specific concentrations at the acceptor and donor ends, and the specific calculation formula is as follows: […]
(§3) where VA represents the volume of the acceptor end solution (0.3 mL for Ap→Bl, 0.1 mL for Bl→Ap); Area represents the area of the Transwell-96 well plate (0.143 cm^2); time represents the incubation time (unit: s); [drug]acceptor represents the drug concentration (ratio of peak area to internal standard area) at the acceptor end; [drug]initial, donor represents the drug concentration at the donor end (ratio of peak area to internal standard area).
(§4) The efflux ratio was calculated as follows: […]
(§5) where Papp (B-A) represents the apparent permeability coefficient from base end to top end; Papp (A-B) represents the apparent permeability coefficient from top end to base end.

[2] = target: T1, KRAS G12C protein (Homo sapiens, UniProt P01116, G12C); experiment: ERK protein phosphorylation assay (p-ERK) in H358 cells; type: cell-based; parameters: scale not given here; settings: H358 cells expressing KRAS G12C protein, 3 h incubation with compound; read-out: IC50, inhibiting phosphorylation of KRAS G12C protein-mediated downstream signaling (p-ERK)
T1 construct: H358 cells (ATCC, CRL-5807) expressing KRAS G12C protein; host or cells: H358 (NCI-H358) cells
Description: The cells were cultured in a 5% CO2 cell incubator for 16 h. The serially diluted compound was added to the cell medium with Echo550 at a final DMSO concentration of 0.5%, and the incubation was continued for 3 h. Then 8% paraformaldehyde (Solarbio, P1112) was added at 40 μL/well, followed by incubation at room temperature for 20 min. After one washing with PBS, cold 100% methanol was added at 40 μL/well for permeabilization for 10 min. […] Washing with PBST was performed 3 times, with 2 min of incubation for each washing. […] Washing with PBST was performed 3 times, with 2 min of incubation for each washing. Finally, the cell culture plate was inverted and centrifuged at 1000 rpm for 1 min, after which fluorescence signals were read using Odyssey CLx.

[3] = tested on: H1373 cell line (K-RAS G12C); experiment: cells; type: cell-based
Description: (§6) a) On day 1, seed cells were placed in T75 a flask. b) On day 3, the medium was taken out and washed once with DPBS. c) Cells were trypsinized with 2 mL TrypLE™ Express enzyme at room temperature (RT) or 37° C. until cells detached. d) 5 mL of fresh medium was added to suspend the cells, and then the suspension was centrifuged at 1000 rpm and room temperature for 5 min. e) The supernatant was discarded, and the cells were resuspended in 5 mL of fresh medium and counted using Countess™ H. f) The cells were seeded back into the T75 flask for further culture or placed into an assay plate for 3D cell proliferation assay.
(§7) The cells were seeded at a density of 600 cells/well in a 384-well plate with 40 μL of medium per well and a final DMSO concentration of 0.5%. b) On day 4, a 3D CTG reagent was added to each well, followed by shaking at room temperature for 1 h. c) The signals were recorded using Envision.
(§8) a) Robustness was examined using 0.5% DMSO and data of blank control medium: H=mean (DMSO); L=mean (medium); SD (H)=STDEV (DMSO); SD (L)=STDEV (medium);
(§9) Y=peak valley value+(peak top value−peak valley value)/(1+10^((Log IC50−X)×HillSlope));
(§10) X: logarithm of compound concentration; Y: percent inhibition (% inhibition); Peak top and peak valley values: the plateau period units are the same as Y; log IC50: the same logarithmic unit as X; HillSlope: slope coefficient or Hill slope.

[4] = tested on: MIA PaCa-2 cell line (K-RAS G12C); experiment: cells; type: cell-based
Description: as §6, §7, §8, §9, §10

[5] = tested on: PC-9 cell line (K-RAS wild type); experiment: cells; type: cell-based; settings: Homo sapiens, PC-9, 96 h; 3D culture, CellTiter-Glo 3D, read on day 4
Description: as §6, §7, §8, §9, §10

[6] = tested on: H358 cell line (K-RAS G12C); experiment: cells; type: cell-based, human
Description: as §6, §7, §8, §9, §10

[7] = tested on: NCI-H358 tumor (K-RAS G12C mutation); type: in vivo, BALB/c nude mice; settings: for Tumor regression: animals with regression / group of 8
Description: The cells were digested with trypsin-EDTA twice a week for passaging as per conventional practice. When the cell saturation reached 80%-90% and a required amount was achieved, the cells were collected and counted for later use. […] 5% DMSO/5% Solutol/90% water was used as a blank control. 3) Tumor inoculation and drug administration: BALB/c nude mice, female, 6-8 weeks old, weighing 18-20 g. The experiment started after 3-7 days of adaptive feeding. 0.1 mL of NCI-H358 cells (5×10^6 cells) were inoculated subcutaneously on the right back of each mouse. The mice were grouped for administration when the average tumor volume reached approximately 150 mm^3. The animals were weighed before administration and the tumor volume was measured. Grouping was randomly performed according to the tumor volume.
Animals were monitored daily for health and death, and routine examinations include observation of the effect of tumor growth and drug treatment on the daily performance of the animals, such as behavioral activities, food and water intake, weight changes (measured once every other day), appearance, or other abnormal conditions. Animal mortality and side effects within each group were recorded based on the number of animals in the group.
Tumor diameters were measured 2-3 times weekly using a vernier caliper.
The tumor volume was calculated as follows: […]
where a and b represent the long and short diameters of the tumor, respectively.
The anti-tumor therapeutic effect of the compound was evaluated by tumor growth inhibition rate TGI (%) or relative tumor proliferation rate T/C (%).
TGI (%) was calculated as follows: […]
T/C (%) was calculated as follows: […]
where TRTV represents the relative tumor volume of the treatment group; CRTV represents the relative tumor volume of the solvent control group.
Based on the results of tumor measurement, the relative tumor volume (RTV) was calculated as follows: […]
where V0 represents the average tumor volume measured at the time of grouping and administration (i.e., d0), Vt represents the average tumor volume in a certain measurement, and TRTV and CRTV take the data on the same day.
After the completion of the experiment, tumors were weighed, and the percentage of Tweight/Cweight was calculated, where Tweight and Cweight represent the tumor weights of the treatment group and the solvent control group, respectively.
Data calculation and analysis: T test was employed for comparison between two groups. One-way ANOVA was employed for comparison between three or more groups. If there is a significant difference in F-values, multiple comparisons should be made after ANOVA analysis. All data analyses were performed with SPSS 17.0. p<0.05 was defined as a significant difference.

[8] = Stability test in human plasma
Description: (§11) To examine the stability of the test compounds in plasma, representative compounds were selected for evaluation.
(§12) Preparation of stock solution: a test compound was dissolved in DMSO to prepare a 1 mM stock solution for later use; Propantheline Bromide was dissolved in acetonitrile to prepare a 1 mM stock solution as a positive control for later use.
(§13) To each well was added 2 μL of the stock solution of the test compound and the stock solution of the positive control such that the final concentrations were 5 KM and the concentration of the organic solvent was 0.5%. Each compound was prepared in duplicate, followed by incubation at 37° C. 50 μL of samples were taken from the reaction samples in equal amounts at 0, 30, 60, 120, 180 and 240 minutes, and 450 μL of cold acetonitrile containing an internal standard was added to terminate the reaction. […] 100 μL of the supernatants were transferred to a new plate, dilute with ultra-pure water, and analyzed by LC-MS/MS.
(§14) Data results were calculated according to peak area ratios.
(§15) The percentage of remaining compound for each time point was calculated as follows:
(§16) Remaining percentagemin(%)=peak area ratiosmin/peak area ratiomin×100%
(§17) where peak area ratios represents the peak area ratio of the test compound to the internal standard compound at t min; peak area ratiomin represents the peak area ratio of the test compound to the internal standard compound at 0 min (initial).

[9] = tested on: Caco-2 cells; experiment: in vitro; settings: Caco-2
Description: as §1, §2, §3, §4, §5

[10] = in vitro; settings: microsomes
Description: To examine the in vitro metabolic stability of the test compounds in liver microsomes of different species, representative compounds were selected, and their stability was evaluated by measuring the concentration of the test compounds in the incubation system using LC/MS/MS and calculating their intrinsic clearance in the microsome system.
The method is specifically as follows: each compound was first dissolved in DMSO to prepare a 200 μM working solution and added to the system solution at the time of testing to form a solution with a final concentration of 1 μM.
The microsomes were stored in a −80° C. freezer.
Preparation of incubation system: an incubation system was prepared as described in the table below.
25 μL, of NADPH or phosphate buffered saline was transferred to the incubation system described above, and 2 μL, of 200 μM of the test compound or verapamil was added. The sample with NADPH added was prepared in duplicate; the NADPH negative sample was prepared in single parallel. 30 μL, of suspension was taken at 0.5, 5, 15, 30 and 60 minutes. The reaction system was terminated by adding 180 μL, of acetonitrile containing an internal standard and vortexed for 10 min. […] 100 μL, of the supernatant was transferred to a feeding plate, and 100 μL, of purified water was added. The mixture was well mixed for UPLC-MS/MS analysis.
The results based on the data were obtained by calculation according to the peak area ratio, and the peak area was detected through an extracted ion chromatogram.
The slope value (k) was determined by linear fitting of the natural logarithm of drug elimination percentage over time.

[11] = human, plasma
Description: as §11, §12, §13, §14, §15, §16, §17

T1 sequence (P01116 1-188 isoform P01116-2 G12C): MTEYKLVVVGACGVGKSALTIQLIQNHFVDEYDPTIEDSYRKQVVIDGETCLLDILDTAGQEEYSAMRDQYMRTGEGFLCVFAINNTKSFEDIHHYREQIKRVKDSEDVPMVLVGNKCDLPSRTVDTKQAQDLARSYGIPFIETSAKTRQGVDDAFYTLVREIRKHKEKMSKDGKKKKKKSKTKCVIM

Papp A→B at 2 h, 10 μM [1]: 0.6 ×10⁻⁶ cm/s
Papp B→A at 2 h, 10 μM [1]: 27.4 ×10⁻⁶ cm/s
Structure (SMILES): C=CC(=O)N1CCN(c2nc(=O)n(-c3c(C)ccnc3C(C)C)c3nc(-c4c(O)cccc4F)c(F)cc23)[C@@H](C)C1 [AMG510]

IC50 [2]: < 1000 nM
IC50 ([3]; Homo sapiens, NCI-H1373, 96 h, 3D culture, CellTiter-Glo 3D, read on day 4, read-out: H1373 (K-RAS G12C) IC50): 0.32 nM
IC50 ([4]; Homo sapiens, MIA PaCa-2, 96 h, 3D culture, CellTiter-Glo 3D, read on day 4, read-out: MIA PaCa-2 (K-RAS G12C) IC50): 0.44 nM
IC50 [5]: 4690 nM
IC50 ([6]; Homo sapiens, NCI-H358, 96 h, 3D culture, CellTiter-Glo 3D, read on day 4, read-out: H358 (K-RAS G12C) IC50): 0.34 nM
Remaining percentage (%) 0 min ([8]; human plasma, 37° C., 0 min): 100.00%
Remaining percentage (%) 30 min ([8]; human plasma, 37° C., 30 min): 97.00%
Remaining percentage (%) 60 min ([8]; human plasma, 37° C., 60 min): 92.97%
Remaining percentage (%) 120 min ([8]; human plasma, 37° C., 120 min): 78.91%
Remaining percentage (%) 180 min ([8]; human plasma, 37° C., 180 min): 59.98%
Remaining percentage (%) 240 min ([8]; human plasma, 37° C., 240 min): 47.82%
half-life at 5 μM ([8]; human, plasma): 3.63 h
Structure (SMILES): [2H]C([2H])([2H])c1cccc2cccc(N3CCc4c(nc(OC[C@@H]5CCCN5C([2H])([2H])[2H])nc4N4CCN(C(=O)C=C)[C@@H](CC#N)C4)C3)c12 [Compound 17, 2-((S)-1-acryloyl-4-(7-(8-(methyl-d3)naphthalen-1-yl)-2-(((S)-1-(methyl-d3)pyrrolidin-2-yl)methoxy)-5,6,7,8-tetrahydropyrido[3,4-d]pyrimidin-4-yl)piperazin-2-yl)acetonitrile]
Selectivity (fold number of mutant vs. wild type) ([3]; PC-9 IC50 vs. H1373 IC50): 14656 fold
Selectivity (fold number of mutant vs. wild type) ([4]; PC-9 IC50 vs. MIA PaCa-2 IC50): 10659 fold
Selectivity (fold number of mutant vs. wild type) ([6]; PC-9 IC50 vs. H358 IC50): 13794 fold
Day 0 Tumor volume (mm^3) Vaverage ± SEM ([7]; Day 0 (at grouping, before administration), 15 mg/kg PO QD group): 151 ± 10 mm^3
Day 21 Tumor volume (mm^3) Vaverage ± SEM ([7]; Day 21, 15 mg/kg PO QD): 90 ± 12 mm^3
Tumor inhibition rate TGI (%) ([7]; Day 21, 15 mg/kg PO QD): 110.7%
Tumor regression ([7]; Day 21, 15 mg/kg PO QD): 8/8
Tumor regression ([7]; Day 21, 15 mg/kg PO QD, listed as compound 17): the tumors in all of the animals regressed
Day 0 Body weight (g) Waverage ± SEM ([7]; mouse, in vivo, po, 15 mg/kg): 22.6 ± 0.7 g

Papp A→B at 2 h, 10 μM [1]: 0.25 ×10⁻⁶ cm/s
Papp B→A at 2 h, 10 μM [1]: 16.4 ×10⁻⁶ cm/s
efflux ratio at 2 h, 10 μM [1]: 65.2
Structure (SMILES): C[C@H]1O[C@@H](O[C@H]2[C@@H](O)C[C@H](O[C@H]3[C@@H](O)C[C@H](O[C@H]4CC[C@@]5(C)[C@H](CC[C@@H]6[C@@H]5C[C@@H](O)[C@]5(C)[C@@H](C7=CC(=O)OC7)CC[C@]65O)C4)O[C@@H]3C)O[C@@H]2C)C[C@H](O)[C@@H]1O [Digoxin]

Efflux ratio [9]: 16.31
CLint (μL/min/mg protein) ([10]; human): 54.30 μL/min/mg protein
t1/2 ([10]; human): 0.4263 h
CLint (μL/min/mg protein) ([10]; mouse): 74.97 μL/min/mg protein
t1/2 ([10]; mouse): 0.3082 h
t1/2 [11]: 1.608 h
Remaining percentage (%) 0 min ([11]; 0 h): 100.00%
Remaining percentage (%) 30 min ([11]; 0.5 h): 88.91%
Remaining percentage (%) 60 min ([11]; 1 h): 82.31%
Remaining percentage (%) 120 min ([11]; 2 h): 55.64%
Remaining percentage (%) 180 min ([11]; 3 h): 32.06%
Remaining percentage (%) 240 min ([11]; 4 h): 18.12%
Structure (SMILES): C=CC(=O)N1CCN(c2nc(OC[C@@H]3CCCN3C)nc3c2CCN(c2cccc4cccc(C)c24)C3)C[C@@H]1CC#N [MRTX-1257, reference compound]

Papp A→B at 2 h, 10 μM [1]: 22.6 ×10⁻⁶ cm/s
Papp B→A at 2 h, 10 μM [1]: 19.5 ×10⁻⁶ cm/s
efflux ratio at 2 h, 10 μM [1]: 0.86
Structure (SMILES): COCCc1ccc(OCC(O)CNC(C)C)cc1 (centres unmarked) [Metoprolol]
